Measurements reported in patent US20230104487A1, “11-(4-CHLOROPHENYL)-4-(2,3-DIHYDRO-1H-INDOLE-1-CARBONYL)-3,11-DIMETHYL-5,10,DIOXATRICYCLO[7.4.0.0,2,6,]TRIDECA-1,3,6,8-TETRAEN-13-ONE AND DERIVATIVES AS DESTABILIZER OF CRY1 FOR THE TREATMENT OF CIRCADIAN RHYTHM ASSOCIATED DISEASES AND DISORDERS” (KOC UNIVERSITESI, priority 2019, published 2023).
Entries after “also recorded” stand apart in the source; their conditions may differ.

Target: T1, CRY1 (Homo sapiens, UniProt Q16526)
T1 construct: To evaluate the effect of FORMULA I on the endogenous protein and mRNA level of clock genes; endogenous in cells; host or cells: U2-OS
T1 sequence (Q16526 1-586): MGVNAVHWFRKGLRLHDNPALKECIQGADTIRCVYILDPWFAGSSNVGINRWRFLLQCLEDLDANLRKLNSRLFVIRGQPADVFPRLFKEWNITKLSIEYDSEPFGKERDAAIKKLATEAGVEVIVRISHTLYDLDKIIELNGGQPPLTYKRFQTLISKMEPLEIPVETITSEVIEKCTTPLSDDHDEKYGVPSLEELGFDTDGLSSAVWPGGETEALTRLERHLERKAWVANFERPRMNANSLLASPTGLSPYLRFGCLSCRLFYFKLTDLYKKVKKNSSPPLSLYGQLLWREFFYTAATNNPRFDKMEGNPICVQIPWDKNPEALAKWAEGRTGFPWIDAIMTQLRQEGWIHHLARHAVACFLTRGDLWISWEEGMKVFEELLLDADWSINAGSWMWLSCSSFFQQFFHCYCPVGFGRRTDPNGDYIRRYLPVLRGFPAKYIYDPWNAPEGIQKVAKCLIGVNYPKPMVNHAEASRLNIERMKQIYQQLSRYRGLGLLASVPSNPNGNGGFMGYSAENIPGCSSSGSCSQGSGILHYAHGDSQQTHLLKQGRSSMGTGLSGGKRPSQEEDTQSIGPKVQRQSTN
Test: Protein immunoblot, unsynchronized U2-OS cells, CRY1
Format: cell-based
Conditions: Western blot
Procedure: Cells were lysed in RIPA buffer (50 mM Tris, 150 mM NaCl, 1% Triton-X, 0.1% SDS) with fresh Protease inhibitor cocktail (PIC). After centrifugation at 13000 rpm for 15 minutes at 4° C., supernatant was used to determine the protein amount using Pierce Protein Assay (Thermo Scientific) according to the manufacturer's instruction. Mice liver samples were homogenized and lysed with Dounce homogenizer and RIPA buffer. After homogenization samples were incubated 10 minutes on ice. After centrifugation 13000 rpm 15 minutes at 4° C. supernatant was used for the whole cell lysate. Subcellular fractionation of liver samples: Liver samples were homogenized with cytosolic lysis buffer (10 mM HEPES pH 7.9, 10 mM KCl, 0.1 mM EDTA, 0.05% NP40, proteasome inhibitor) by pipetting 40 times with a cut tip. Then samples were incubated 10 minutes on ice and centrifuged for 3 minutes at 3000 rpm at 4° C. Supernatant was saved in a new tube, and pellet was processed for the nuclear fraction. Supernatant was centrifuged at 13000 rpm for 3 minutes at 4° C. where new supernatant saved as the cytosolic fraction. […] ECL buffer system (Advansta WesternBright) was used to visualize HRP chemi-luminescence via BioRad ChemiDoc Touch visualizer.

In the case of Cc1c(C(=O)N2CCc3ccccc32)oc2ccc3c(c12)C(=O)CC(C)(c1ccc(Cl)cc1)O3 (stereo not shown) [FORMULA I, 11-(4-chlorophenyl)-4-(2,3-dihydro-1H-indole-1-carbonyl)-3,11-dimethyl-5,10,dioxatricyclo[7.4.0.0,2,6,]trideca-1,3,6,8-tetraen-13-one], the “steady-state level of CRY1” value was “level of CRY1 reduced; also recorded: decreased the steady-state level of CRY1”.
